Experimental data: PubChem BioAssay (NCI)
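Growth conditions: 96-well plates. Treatment: test compound, 48 hours, 5 concentrations. Analysis: linear interpolation between bracketing concentrations; unreached endpoints set to highest concentration. The concentration for full growth arrest is given as TGI.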

How the values were obtained:
Experiment in all cases: inhibition of tumour cell growth, NCI panel, 48 h
SK-OV-3 ovarian = tested on: SK-OV-3 ovarian
HCT-116 colon = tested on: HCT-116 colon
SK-MEL-5 melanoma = tested on: SK-MEL-5 melanoma
EKVX NSCLC = tested on: EKVX NSCLC
SNB-19 CNS = tested on: SNB-19 CNS
UO-31 renal = tested on: UO-31 renal
CAKI-1 renal = tested on: CAKI-1 renal
NCI-H460 lung = tested on: NCI-H460 lung
KM12 colon = tested on: KM12 colon
NCI-H23 lung = tested on: NCI-H23 lung
MCF7 breast = tested on: MCF7 breast
OVCAR-5 ovarian = tested on: OVCAR-5 ovarian
786-0 renal = tested on: 786-0 renal
OVCAR-3 ovarian = tested on: OVCAR-3 ovarian
NCI-H226 lung = tested on: NCI-H226 lung
NCI/ADR-RES ovarian = tested on: NCI/ADR-RES ovarian
HL-60(TB) leukemia = tested on: HL-60(TB) leukemia
HS 578T breast = tested on: HS 578T breast
HT29 colon = tested on: HT29 colon
MDA-N = tested on: MDA-N
SN12C renal = tested on: SN12C renal
SR leukemia = tested on: SR leukemia
RPMI-8226 leukemia = tested on: RPMI-8226 leukemia
NCI-H522 lung = tested on: NCI-H522 lung
SW-620 colon = tested on: SW-620 colon
MALME-3M melanoma = tested on: MALME-3M melanoma
IGROV1 ovarian = tested on: IGROV1 ovarian
T-47D breast = tested on: T-47D breast
OVCAR-8 ovarian = tested on: OVCAR-8 ovarian
HCC-2998 colon = tested on: HCC-2998 colon
MDA-MB-435 = tested on: MDA-MB-435
M14 melanoma = tested on: M14 melanoma
ACHN renal = tested on: ACHN renal
HCT-15 colon = tested on: HCT-15 colon
MOLT-4 leukemia = tested on: MOLT-4 leukemia
SK-MEL-28 melanoma = tested on: SK-MEL-28 melanoma
BT-549 breast = tested on: BT-549 breast
SNB-75 CNS = tested on: SNB-75 CNS
CCRF-CEM leukemia = tested on: CCRF-CEM leukemia
SF-268 CNS = tested on: SF-268 CNS
TK-10 renal = tested on: TK-10 renal
MDA-MB-231 breast = tested on: MDA-MB-231 breast
SF-295 CNS = tested on: SF-295 CNS
SK-MEL-2 melanoma = tested on: SK-MEL-2 melanoma
A498 renal = tested on: A498 renal
HOP-62 NSCLC = tested on: HOP-62 NSCLC
UACC-62 melanoma = tested on: UACC-62 melanoma
U251 CNS = tested on: U251 CNS
A549 NSCLC = tested on: A549 NSCLC
UACC-257 melanoma = tested on: UACC-257 melanoma
LOX IMVI melanoma = tested on: LOX IMVI melanoma
PC-3 prostate = tested on: PC-3 prostate
COLO 205 colon = tested on: COLO 205 colon
DU-145 prostate = tested on: DU-145 prostate
K-562 leukemia = tested on: K-562 leukemia
SF-539 CNS = tested on: SF-539 CNS
RXF 393 renal = tested on: RXF 393 renal
HOP-92 NSCLC = tested on: HOP-92 NSCLC
OVCAR-4 ovarian = tested on: OVCAR-4 ovarian

COc1ccc(OC2OC(CO)C(O)C(O)C2O)cc1 (centres undefined)
TGI (SK-OV-3 ovarian): > 100 µM | TGI (HCT-116 colon): > 100 µM | TGI (SK-MEL-5 melanoma): > 100 µM | TGI (EKVX NSCLC): > 100 µM | TGI (SNB-19 CNS): > 100 µM | TGI (UO-31 renal): > 100 µM | TGI (CAKI-1 renal): > 100 µM | TGI (NCI-H460 lung): > 100 µM | TGI (KM12 colon): > 100 µM | TGI (NCI-H23 lung): > 100 µM | TGI (MCF7 breast): > 100 µM | TGI (OVCAR-5 ovarian): > 100 µM | TGI (786-0 renal): > 100 µM | TGI (OVCAR-3 ovarian): > 100 µM | TGI (NCI-H226 lung): > 100 µM | TGI (NCI/ADR-RES ovarian): > 100 µM | TGI (HL-60(TB) leukemia): > 100 µM | TGI (HS 578T breast): > 100 µM | TGI (HT29 colon): > 100 µM | TGI (MDA-N): > 100 µM | TGI (SN12C renal): > 100 µM | TGI (SR leukemia): > 100 µM | TGI (RPMI-8226 leukemia): > 100 µM | TGI (NCI-H522 lung): > 100 µM | TGI (SW-620 colon): > 100 µM | TGI (MALME-3M melanoma): > 100 µM | TGI (IGROV1 ovarian): > 100 µM | TGI (T-47D breast): > 100 µM | TGI (OVCAR-8 ovarian): > 100 µM | TGI (HCC-2998 colon): > 100 µM | TGI (MDA-MB-435): > 100 µM | TGI (M14 melanoma): > 100 µM | TGI (ACHN renal): > 100 µM | TGI (HCT-15 colon): > 100 µM | TGI (MOLT-4 leukemia): > 100 µM | TGI (SK-MEL-28 melanoma): > 100 µM | TGI (BT-549 breast): > 100 µM | TGI (SNB-75 CNS): > 100 µM | TGI (CCRF-CEM leukemia): > 100 µM | TGI (SF-268 CNS): > 100 µM | TGI (TK-10 renal): > 100 µM | TGI (MDA-MB-231 breast): > 100 µM | TGI (SF-295 CNS): > 100 µM | TGI (SK-MEL-2 melanoma): > 100 µM | TGI (A498 renal): > 100 µM | TGI (HOP-62 NSCLC): > 100 µM | TGI (UACC-62 melanoma): > 100 µM | TGI (U251 CNS): > 100 µM | TGI (A549 NSCLC): > 100 µM | TGI (UACC-257 melanoma): > 100 µM | TGI (LOX IMVI melanoma): > 100 µM | TGI (PC-3 prostate): > 100 µM | TGI (COLO 205 colon): > 100 µM | TGI (DU-145 prostate): > 100 µM | TGI (K-562 leukemia): > 100 µM | TGI (SF-539 CNS): > 100 µM

COc1cc(OC)c2nc(C)c3c(c2c1)OCC3
TGI (HCT-116 colon): > 100 µM | TGI (SK-MEL-5 melanoma): > 100 µM | TGI (EKVX NSCLC): > 100 µM | TGI (SNB-19 CNS): > 100 µM | TGI (UO-31 renal): > 100 µM | TGI (CAKI-1 renal): 72 µM | TGI (NCI-H460 lung): > 100 µM | TGI (KM12 colon): > 100 µM | TGI (NCI-H23 lung): > 100 µM | TGI (MCF7 breast): > 100 µM | TGI (OVCAR-5 ovarian): > 100 µM | TGI (786-0 renal): > 100 µM | TGI (OVCAR-3 ovarian): > 100 µM | TGI (RXF 393 renal): 62.6 µM | TGI (NCI-H226 lung): > 100 µM | TGI (NCI/ADR-RES ovarian): > 100 µM | TGI (HL-60(TB) leukemia): > 100 µM | TGI (HS 578T breast): > 100 µM | TGI (HT29 colon): > 100 µM | TGI (HOP-92 NSCLC): > 100 µM | TGI (MDA-N): > 100 µM | TGI (SN12C renal): > 100 µM | TGI (SR leukemia): > 100 µM | TGI (RPMI-8226 leukemia): > 100 µM | TGI (NCI-H522 lung): > 100 µM | TGI (SW-620 colon): > 100 µM | TGI (MALME-3M melanoma): > 100 µM | TGI (IGROV1 ovarian): > 100 µM | TGI (T-47D breast): > 100 µM | TGI (OVCAR-8 ovarian): > 100 µM | TGI (HCC-2998 colon): > 100 µM | TGI (MDA-MB-435): > 100 µM | TGI (M14 melanoma): > 100 µM | TGI (ACHN renal): > 100 µM | TGI (HCT-15 colon): > 100 µM | TGI (MOLT-4 leukemia): > 100 µM | TGI (SK-MEL-28 melanoma): > 100 µM | TGI (BT-549 breast): > 100 µM | TGI (OVCAR-4 ovarian): > 100 µM | TGI (SNB-75 CNS): > 100 µM | TGI (CCRF-CEM leukemia): > 100 µM | TGI (SF-268 CNS): > 100 µM | TGI (TK-10 renal): > 100 µM | TGI (MDA-MB-231 breast): 52.9 µM | TGI (SF-295 CNS): > 100 µM | TGI (SK-MEL-2 melanoma): > 100 µM | TGI (A498 renal): > 100 µM | TGI (HOP-62 NSCLC): > 100 µM | TGI (UACC-62 melanoma): > 100 µM | TGI (U251 CNS): > 100 µM | TGI (A549 NSCLC): > 100 µM | TGI (UACC-257 melanoma): > 100 µM | TGI (LOX IMVI melanoma): > 100 µM | TGI (PC-3 prostate): > 100 µM | TGI (COLO 205 colon): > 100 µM | TGI (DU-145 prostate): > 100 µM | TGI (K-562 leukemia): > 100 µM | TGI (SF-539 CNS): > 100 µM
